Laboratory results reported in patent US7923440B2, “Method of treating or preventing immune mediated disorders and pharmaceutical formulation for use therein” (Pantarhei Bioscience B.V., priority 2002, dated 2011).

Key:
[1] = test system: ovariectomized adult rats; assay: Vaginal cornification bioassay in ovariectomized rats; format: in vivo, rat; conditions: for Number of Rats Exhibiting Estrogenic Response/Number of Rats Treated: sc, Day 7
Text: Uterine weight increase in the rat is more commonly used as a measure of estrogenicity. […] In the early 1920s it was discovered that follicular fluid from the pig ovary contained a factor(s) that caused cornification/keratinization of the vaginal epithelium in the rat (Allen and Doisy, 1923, JAMA, 81, 819-821; Allen and Doisy, 1924, Am. J. Physiol., 69, 577-588). The so-called vaginal cornification response in rats subsequently provided a bioassay for testing estrogenicity. Vaginal epithelial cornification/keratinization in ovariectomized rats can be produced only by compounds considered to be true estrogens (Jones et al, 1973, Fert. Steril. 24, 284-291). […] Adult intact female CD rats were ovariectomized to induce estrogen deficiency. […] Castrate vaginal smears are indicative that complete ovariectomy was achieved. Treatment commenced following completion of the 7 days of smearing (day 0=first day of dosing). Animals were dosed, once daily for 7 consecutive days. Daily vaginal lavages continued to be obtained for 7 days after dosing was initiated in order to detect vaginal cornification, as an indication of an estrogenic response. A drop of vaginal washings was placed on a glass slide and examined by light microscopy to detect the presence or absence of cornified epithelial cells. Vaginal lavages were obtained prior to dosing on days 0-6 and prior to necropsy on day 7. The vaginal cornification bioassay was performed in order to determine the estrogenic profile of E4 when given subcutaneously (sc) to ovariectomized adult rats. E2 was used as a positive control. The vehicle (10% ethanol/sesame oil) served as the negative control. Steroids were dissolved in absolute ethanol and then brought to the final concentration with sesame oil (10% ethanol in sesame oil). […] The vaginal cornification bioassay was performed in order to determine the estrogenic profile of E4 when given orally (po) to ovariectomized adult rats. EE was used as a positive control. The vehicle (10% ethanol/sesame oil) served as the negative control. […]

uterus = conditions: continuous administration from a subcutaneous depot, Martucci et al. 1977; cited from earlier work
[2] = test system: B10.PL mice with experimental autoimmune encephalomyelitis (EAE); assay: MBP induced EAE in B10.PL mice; format: in vivo, mouse
[3] = intravenous, two adult women, Fishman et al. 1970; cited from earlier work
[4] = ovariectomized female B10.PL mice, sc and oral 0.1-3.0 mg/kg/day, 40 days

In the case of C[C@]12CC[C@@H]3c4ccc(O)cc4CC[C@H]3[C@@H]1[C@@H](O)[C@@H](O)[C@@H]2O [E4, 1,3,5 (10)-estratrien-3,15α,16α,17β-tetrol], the “onset of vaginal cornification, po versus sc” value ([1]; amount of animals responding at days 1-3, even at low doses (e.g. 0.1 mg/kg/day)) is reported as “faster in po-treated than in sc-treated animals”, the “Number of Rats Exhibiting Estrogenic Response/Number of Rats Treated” value ([1]; 1.0 mg/kg/day, 1 mg/kg/day) is reported as “all rats” and the “Number of Rats Exhibiting Estrogenic Response/Number of Rats Treated” value ([1]; 3.0 mg/kg/day, 3 mg/kg/day) is reported as “all rats”. For the same compound, the uterotrophic activity (uterus) was “very weak uterotrophic activity”, the “symptoms and severity of EAE” value ([2]; non-castrated female and male B10.PL mice, daily sc and/or oral) was “dose-dependently alleviate symptoms and severity of EAE” and the “number of afflicted animals and/or severity of EAE symptoms” value [2, 4] was “dose-dependently reduced”. For the same compound, the “onset of EAE disease symptoms” value [2, 4] was “dose-dependent effects in delaying the onset of EAE disease symptoms”, the excretion [3] was “rapidly and completely excreted in urine as the glucosiduronate” and the metabolism [3] was “virtually no metabolism except for conjugation took place”.
